Laboratory results reported in patent US10688200B2, “Urea-based prostate specific membrane antigen (PSMA) inhibitors for imaging and therapy” (Five Eleven Pharma Inc., priority 2015, dated 2020).

Assay: Biodistribution of radiotracers in normal mice
Assay type: in vivo, mouse
Conditions: normal male mice
Protocol: Normal CD-1 male mice were injected via the tail vein with 35 μCi of [^68Ga] radiotracers (0.2 nmole of ligand). […] All organs were removed and blood was also collected. Each organ was weighed, and the tissue radioactivity was measured with an automated gamma counter (Wizard, Perkin Elmer). The % ID/g was calculated by comparison with samples of a standard dilution of the initial dose. All measurements were corrected for decay.

## O=C(O)CC[C@H](NC(=O)N[C@@H](CCCCNC(=O)CCCCCNC(=O)CCc1ccc2c(c1)C[N+]13CC[N+]45CC(=O)[O][68Ga-3]14([O]C(=O)C3)([O]2)[O]c1ccc(CCC(=O)NCC(=O)O)cc1C5)C(=O)O)C(=O)O (stereo partly drawn) [[^68Ga]1c]
2 min
  Biodistribution: Blood: 8.55 ± 0.07 % dose/g
  Biodistribution: Bone: 2.30 ± 0.07 % dose/g
  Biodistribution: Brain: 0.28 ± 0.04 % dose/g
  Biodistribution: Heart: 3.48 ± 0.31 % dose/g
  Biodistribution: Kidney: 47.2 ± 2.68 % dose/g
  Biodistribution: Liver: 2.91 ± 0.15 % dose/g
  Biodistribution: Lung: 5.42 ± 0.23 % dose/g
  Biodistribution: Muscle: 2.16 ± 0.34 % dose/g
  Biodistribution: Pancreas: 2.20 ± 0.04 % dose/g
  Biodistribution: Skin: 3.00 ± 0.40 % dose/g
  Biodistribution: Spleen: 3.58 ± 0.48 % dose/g
60 min
  Biodistribution: Blood: 0.58 ± 0.07 % dose/g
  Biodistribution: Bone: 1.24 ± 0.19 % dose/g
  Biodistribution: Brain: 0.03 ± 0.01 % dose/g
  Biodistribution: Heart: 0.43 ± 0.14 % dose/g
  Biodistribution: Kidney: 83.5 ± 14.7 % dose/g
  Biodistribution: Liver: 0.79 ± 0.15 % dose/g
  Biodistribution: Lung: 0.90 ± 0.16 % dose/g
  Biodistribution: Muscle: 0.60 ± 0.13 % dose/g
  Biodistribution: Pancreas: 1.13 ± 0.17 % dose/g
  Biodistribution: Skin: 1.07 ± 0.16 % dose/g
  Biodistribution: Spleen: 1.63 ± 0.20 % dose/g

## C[C@H](NC(=O)CCc1ccc2c(c1)C[N+]13CC[N+]45CC(=O)[O][68Ga-3]41([O]C(=O)C3)([O]c1ccc(CCC(=O)NCCCCCC(=O)NCCCC[C@H](NC(=O)N[C@@H](CCC(=O)O)C(=O)O)C(=O)O)cc1C5)[O]2)C(=O)O (stereo partly drawn) [[^68Ga]1d]
2 min
  Biodistribution: Blood: 7.44 ± 1.40 % dose/g
  Biodistribution: Bone: 2.01 ± 0.24 % dose/g
  Biodistribution: Brain: 0.23 ± 0.04 % dose/g
  Biodistribution: Heart: 3.18 ± 0.48 % dose/g
  Biodistribution: Kidney: 50.3 ± 8.32 % dose/g
  Biodistribution: Liver: 2.36 ± 0.27 % dose/g
  Biodistribution: Lung: 4.96 ± 0.67 % dose/g
  Biodistribution: Muscle: 1.96 ± 0.08 % dose/g
  Biodistribution: Pancreas: 1.83 ± 0.40 % dose/g
  Biodistribution: Skin: 2.30 ± 0.20 % dose/g
  Biodistribution: Spleen: 3.40 ± 0.91 % dose/g
60 min
  Biodistribution: Blood: 0.44 ± 0.06 % dose/g
  Biodistribution: Bone: 0.70 ± 0.09 % dose/g
  Biodistribution: Brain: 0.03 ± 0.00 % dose/g
  Biodistribution: Heart: 0.42 ± 0.01 % dose/g
  Biodistribution: Kidney: 141.7 ± 0.82 % dose/g
  Biodistribution: Liver: 0.68 ± 0.11 % dose/g
  Biodistribution: Lung: 1.10 ± 0.13 % dose/g
  Biodistribution: Muscle: 0.50 ± 0.07 % dose/g
  Biodistribution: Pancreas: 1.02 ± 0.18 % dose/g
  Biodistribution: Skin: 0.81 ± 0.11 % dose/g
  Biodistribution: Spleen: 5.11 ± 0.97 % dose/g

## O=C(O)CC[C@H](NC(=O)N[C@@H](CCCCNC(=O)CCCCCNC(=O)CCc1ccc2c(c1)C[N+]13CC[N+]45CC(=O)[O][68Ga-3]14([O]C(=O)C3)([O]2)[O]c1ccc(CCC(=O)N[C@@H](CC(=O)O)C(=O)O)cc1C5)C(=O)O)C(=O)O (stereo partly drawn) [[^68Ga]1e]
2 min
  Biodistribution: Blood: 7.47 ± 0.33 % dose/g
  Biodistribution: Bone: 2.33 ± 0.05 % dose/g
  Biodistribution: Brain: 0.25 ± 0.07 % dose/g
  Biodistribution: Heart: 3.12 ± 0.17 % dose/g
  Biodistribution: Kidney: 46.6 ± 3.01 % dose/g
  Biodistribution: Liver: 2.00 ± 0.09 % dose/g
  Biodistribution: Lung: 5.08 ± 0.13 % dose/g
  Biodistribution: Muscle: 2.01 ± 0.09 % dose/g
  Biodistribution: Pancreas: 1.80 ± 0.17 % dose/g
  Biodistribution: Skin: 2.46 ± 0.32 % dose/g
  Biodistribution: Spleen: 3.69 ± 0.45 % dose/g
60 min
  Biodistribution: Blood: 0.45 ± 0.14 % dose/g
  Biodistribution: Bone: 0.52 ± 0.06 % dose/g
  Biodistribution: Brain: 0.02 ± 0.00 % dose/g
  Biodistribution: Heart: 0.28 ± 0.05 % dose/g
  Biodistribution: Kidney: 113 ± 28.5 % dose/g
  Biodistribution: Liver: 0.35 ± 0.09 % dose/g
  Biodistribution: Lung: 1.14 ± 0.30 % dose/g
  Biodistribution: Muscle: 0.33 ± 0.07 % dose/g
  Biodistribution: Pancreas: 0.74 ± 0.19 % dose/g
  Biodistribution: Skin: 0.67 ± 0.06 % dose/g
  Biodistribution: Spleen: 3.03 ± 0.90 % dose/g

## O=C(O)CC[C@H](NC(=O)CCc1ccc2c(c1)C[N+]13CC[N+]45CC(=O)[O][68Ga-3]41([O]C(=O)C3)([O]c1ccc(CCC(=O)NCCCCCC(=O)NCCCC[C@H](NC(=O)N[C@@H](CCC(=O)O)C(=O)O)C(=O)O)cc1C5)[O]2)C(=O)O (stereo partly drawn) [[^68Ga]1f]
2 min
  Biodistribution: Blood: 7.77 ± 1.51 % dose/g
  Biodistribution: Bone: 2.33 ± 0.38 % dose/g
  Biodistribution: Brain: 0.25 ± 0.02 % dose/g
  Biodistribution: Heart: 3.23 ± 0.64 % dose/g
  Biodistribution: Kidney: 45.0 ± 12.57 % dose/g
  Biodistribution: Liver: 2.43 ± 0.60 % dose/g
  Biodistribution: Lung: 5.07 ± 1.01 % dose/g
  Biodistribution: Muscle: 1.81 ± 0.07 % dose/g
  Biodistribution: Pancreas: 1.72 ± 0.41 % dose/g
  Biodistribution: Skin: 2.44 ± 0.16 % dose/g
  Biodistribution: Spleen: 3.80 ± 0.97 % dose/g
60 min
  Biodistribution: Blood: 0.97 ± 0.24 % dose/g
  Biodistribution: Bone: 1.08 ± 0.05 % dose/g
  Biodistribution: Brain: 0.04 ± 0.01 % dose/g
  Biodistribution: Heart: 0.52 ± 0.07 % dose/g
  Biodistribution: Kidney: 120 ± 5.65 % dose/g
  Biodistribution: Liver: 0.79 ± 0.13 % dose/g
  Biodistribution: Lung: 1.37 ± 0.15 % dose/g
  Biodistribution: Muscle: 0.60 ± 0.04 % dose/g
  Biodistribution: Pancreas: 1.13 ± 0.17 % dose/g
  Biodistribution: Skin: 0.98 ± 0.10 % dose/g
  Biodistribution: Spleen: 2.98 ± 1.86 % dose/g

## O=C(O)CC[C@H](NC(=O)N[C@@H](CCCCNC(=O)CCCCCNC(=O)CCc1ccc2c(c1)C[N+]13CC[N+]45CC(=O)[O][68Ga-3]14([O]C(=O)C3)([O]2)[O]c1ccc(CCC(=O)NCCNC(=O)CN2CCN(CC(=O)O)CCN(CC(=O)O)CCN(CC(=O)O)CC2)cc1C5)C(=O)O)C(=O)O (stereo partly drawn) [[^68Ga]1g]
2 min
  Biodistribution: Blood: 7.62 ± 0.08 % dose/g
  Biodistribution: Bone: 1.51 ± 0.17 % dose/g
  Biodistribution: Brain: 0.29 ± 0.06 % dose/g
  Biodistribution: Heart: 2.82 ± 0.21 % dose/g
  Biodistribution: Kidney: 50.9 ± 5.81 % dose/g
  Biodistribution: Liver: 2.00 ± 0.05 % dose/g
  Biodistribution: Lung: 5.19 ± 0.19 % dose/g
  Biodistribution: Muscle: 1.72 ± 0.18 % dose/g
  Biodistribution: Pancreas: 1.73 ± 0.09 % dose/g
  Biodistribution: Skin: 2.00 ± 0.21 % dose/g
  Biodistribution: Spleen: 5.06 ± 0.78 % dose/g
30 min
  Biodistribution: Blood: 0.68 ± 0.09 % dose/g
  Biodistribution: Bone: 0.22 ± 0.11 % dose/g
  Biodistribution: Brain: 0.06 ± 0.03 % dose/g
  Biodistribution: Heart: 0.49 ± 0.15 % dose/g
  Biodistribution: Kidney: 110 ± 13.4 % dose/g
  Biodistribution: Liver: 0.47 ± 0.06 % dose/g
  Biodistribution: Lung: 2.13 ± 0.39 % dose/g
  Biodistribution: Muscle: 0.48 ± 0.04 % dose/g
  Biodistribution: Pancreas: 0.73 ± 0.19 % dose/g
  Biodistribution: Skin: 1.13 ± 0.25 % dose/g
  Biodistribution: Spleen: 5.28 ± 2.18 % dose/g
60 min
  Biodistribution: Blood: 0.41 ± 0.02 % dose/g
  Biodistribution: Bone: 0.28 ± 0.03 % dose/g
  Biodistribution: Brain: 0.03 ± 0.01 % dose/g
  Biodistribution: Heart: 0.27 ± 0.03 % dose/g
  Biodistribution: Kidney: 116 ± 23.2 % dose/g
  Biodistribution: Liver: 0.43 ± 0.05 % dose/g
  Biodistribution: Lung: 1.33 ± 0.06 % dose/g
  Biodistribution: Muscle: 0.30 ± 0.08 % dose/g
  Biodistribution: Pancreas: 0.48 ± 0.05 % dose/g
  Biodistribution: Skin: 0.92 ± 0.11 % dose/g
  Biodistribution: Spleen: 4.77 ± 2.37 % dose/g
120 min
  Biodistribution: Blood: 0.25 ± 0.04 % dose/g
  Biodistribution: Bone: 0.28 ± 0.03 % dose/g
  Biodistribution: Brain: 0.02 ± 0.00 % dose/g
  Biodistribution: Heart: 0.16 ± 0.01 % dose/g
  Biodistribution: Kidney: 95.0 ± 11.2 % dose/g
  Biodistribution: Liver: 0.30 ± 0.01 % dose/g
  Biodistribution: Lung: 0.85 ± 0.16 % dose/g
  Biodistribution: Muscle: 0.23 ± 0.04 % dose/g
  Biodistribution: Pancreas: 0.39 ± 0.04 % dose/g
  Biodistribution: Skin: 0.66 ± 0.10 % dose/g
  Biodistribution: Spleen: 2.48 ± 0.91 % dose/g
